Results from patent US10093630B2, “Pyrazole compounds and methods of making and using same” (ABIDE THERAPEUTICS, INC., priority 2014, dated 2018).
Read-outs that look alike come from different tables or passages of the source.

Key:
Assay in all cases: In vitro competitive activity-based protein profiling (gel-based, FP-Rh or HT-01 probe)
Format in all cases: biochemical
ABHD6 = biological target: T1, ABHD6 (Mus musculus, UniProt Q8R2Y0); details: for inhibition at 1 µM: 1 μM inhibitor, read-out: % Inhibition at 1 μM, C = ABHD6; for inhibition at 10 µM: 10 μM inhibitor, read-out: % Inhibition at 10 μM, C = ABHD6; for IC50: mouse brain membrane fraction or cell lysates, 30 min preincubation at 37° C., read-out: Mouse (IC50 value, nM) ABHD6
T1 construct: Proteomes (mouse brain membrane fraction or cell lysates); from tissue; host or cells: mouse brain membrane fraction (or cell lysates, not specified)
T1 sequence (Q8R2Y0 1-336): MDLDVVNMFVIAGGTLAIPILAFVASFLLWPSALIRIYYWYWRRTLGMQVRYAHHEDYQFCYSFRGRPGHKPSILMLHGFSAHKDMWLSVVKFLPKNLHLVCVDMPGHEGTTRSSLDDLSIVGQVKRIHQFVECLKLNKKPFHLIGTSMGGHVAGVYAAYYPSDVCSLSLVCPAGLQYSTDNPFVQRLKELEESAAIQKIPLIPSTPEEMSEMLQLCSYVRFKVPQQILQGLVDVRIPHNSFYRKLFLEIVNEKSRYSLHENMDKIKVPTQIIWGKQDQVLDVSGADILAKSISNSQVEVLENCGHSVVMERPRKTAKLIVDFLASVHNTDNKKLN
Description: (§1) In Vitro Competitive Activity-Based Protein Profiling.
(§2) Proteomes (mouse brain membrane fraction or cell lysates) (50 μL, 1.0 mg/mL total protein concentration) were preincubated with varying concentrations of inhibitors at 37° C. After 30 min, FP-Rh or HT-01 ([…], 50 μM in DMSO) was added and the mixture was incubated for another 30 min at 37° C. Reactions were quenched with SDS loading buffer (15 μL—4×) and run on SDS-PAGE. Following gel imaging, serine hydrolase activity was determined by measuring fluorescent intensity of gel bands corresponding to MAGL, ABHD6, FAAH, and PLA2G7 using ImageJ 1.43u software.

FAAH = biological target: T2, FAAH (Mus musculus, UniProt O08914); details: for inhibition at 1 µM: 1 μM inhibitor, read-out: % Inhibition at 1 μM, B = FAAH; for inhibition at 10 µM: 10 μM inhibitor, read-out: % Inhibition at 10 μM, B = FAAH; for IC50: mouse brain membrane fraction or cell lysates, 30 min preincubation at 37° C., read-out: Mouse (IC50 value, nM) FAAH
T2 construct: Proteomes (mouse brain membrane fraction or cell lysates); from tissue; host or cells: mouse brain membrane fraction (or cell lysates, not specified)
T2 sequence (O08914 1-579): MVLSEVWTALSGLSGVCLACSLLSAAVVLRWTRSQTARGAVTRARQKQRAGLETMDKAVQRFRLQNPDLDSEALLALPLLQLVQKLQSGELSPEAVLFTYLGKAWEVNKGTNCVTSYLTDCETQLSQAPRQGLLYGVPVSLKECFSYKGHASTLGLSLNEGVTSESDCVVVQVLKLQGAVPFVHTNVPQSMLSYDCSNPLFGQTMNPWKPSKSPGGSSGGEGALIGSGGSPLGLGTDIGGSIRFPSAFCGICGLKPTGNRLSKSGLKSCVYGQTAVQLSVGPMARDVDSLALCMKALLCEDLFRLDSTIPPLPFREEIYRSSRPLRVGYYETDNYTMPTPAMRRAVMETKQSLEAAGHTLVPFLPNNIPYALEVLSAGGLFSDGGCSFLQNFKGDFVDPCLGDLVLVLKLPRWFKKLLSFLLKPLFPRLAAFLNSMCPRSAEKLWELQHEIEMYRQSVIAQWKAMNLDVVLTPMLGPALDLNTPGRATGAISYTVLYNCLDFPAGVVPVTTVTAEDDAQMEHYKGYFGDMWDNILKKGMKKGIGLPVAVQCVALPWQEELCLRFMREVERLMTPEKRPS
Description: as §1, §2

MAGL = biological target: T3, MAGL (Mus musculus, UniProt O35678); details: for inhibition at 1 µM: 1 μM inhibitor; for inhibition at 10 µM: 10 μM inhibitor; for IC50: mouse brain membrane fraction or cell lysates, 30 min preincubation at 37° C., read-out: Mouse (IC50 value, nM) MAGL
T3 construct: Proteomes (mouse brain membrane fraction or cell lysates); from tissue; host or cells: mouse brain membrane fraction (or cell lysates, not specified)
T3 sequence (O35678 1-303): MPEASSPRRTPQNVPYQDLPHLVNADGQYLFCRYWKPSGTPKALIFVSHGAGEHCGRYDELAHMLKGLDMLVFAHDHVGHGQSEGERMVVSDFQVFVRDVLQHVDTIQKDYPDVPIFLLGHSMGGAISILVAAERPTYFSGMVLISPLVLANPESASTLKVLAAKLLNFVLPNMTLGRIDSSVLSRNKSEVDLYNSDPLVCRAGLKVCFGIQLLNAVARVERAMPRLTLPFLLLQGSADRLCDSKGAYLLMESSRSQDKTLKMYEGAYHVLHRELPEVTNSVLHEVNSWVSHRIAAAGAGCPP
Description: as §1, §2

PLA2G7 = biological target: T4, PLA2G7 (Mus musculus, UniProt Q60963); details: for inhibition at 1 µM: 1 μM inhibitor, read-out: % Inhibition at 1 μM, D = PLA2G7; for inhibition at 10 µM: 10 μM inhibitor, read-out: % Inhibition at 10 μM, D = PLA2G7; for IC50: mouse brain membrane fraction or cell lysates, 30 min preincubation at 37° C.
T4 construct: Proteomes (mouse brain membrane fraction or cell lysates); from tissue; host or cells: mouse brain membrane fraction (or cell lysates, not specified)
T4 sequence (Q60963 22-440): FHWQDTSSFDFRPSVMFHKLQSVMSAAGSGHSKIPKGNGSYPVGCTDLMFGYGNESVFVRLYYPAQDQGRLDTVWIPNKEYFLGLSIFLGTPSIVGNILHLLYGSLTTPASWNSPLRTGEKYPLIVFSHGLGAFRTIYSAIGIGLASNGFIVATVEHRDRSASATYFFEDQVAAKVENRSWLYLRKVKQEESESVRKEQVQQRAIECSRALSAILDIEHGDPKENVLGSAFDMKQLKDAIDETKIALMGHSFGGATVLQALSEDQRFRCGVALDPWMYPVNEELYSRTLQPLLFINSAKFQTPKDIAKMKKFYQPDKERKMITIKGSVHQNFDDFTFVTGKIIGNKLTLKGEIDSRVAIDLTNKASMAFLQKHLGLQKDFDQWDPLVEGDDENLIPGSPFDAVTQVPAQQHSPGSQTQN
Description: as §1, §2

Row | inhibition at 1 µM (ABHD6) [%] | inhibition at 10 µM (ABHD6) [%] | inhibition at 1 µM (FAAH) [%] | inhibition at 10 µM (FAAH) [%] | inhibition at 1 µM (MAGL) [%] | inhibition at 10 µM (MAGL) [%] | inhibition at 1 µM (PLA2G7) [%] | inhibition at 10 µM (PLA2G7) [%] | inhibition at 1 µM (ABHD6; gel-based competitive ABPP) [%] | inhibition at 10 µM (ABHD6; gel-based competitive ABPP) [%] | IC50 (ABHD6) [nM] | inhibition at 1 µM (FAAH; gel-based competitive ABPP) [%] | inhibition at 10 µM (FAAH; gel-based competitive ABPP) [%] | IC50 (FAAH) [nM] | inhibition at 1 µM (MAGL; gel-based competitive ABPP) [%] | inhibition at 10 µM (MAGL; gel-based competitive ABPP) [%] | IC50 (MAGL) [nM] | inhibition at 1 µM (PLA2G7; gel-based competitive ABPP) [%] | inhibition at 10 µM (PLA2G7; gel-based competitive ABPP) [%] | IC50 (PLA2G7) [nM] | Structure (SMILES)
1 |  |  |  |  |  |  |  |  | < 25 | > 75 | > 1000 | > 75 | > 75 | 100 to 1000 | < 25 | > 75 | > 1000 | < 25 | < 25 | > 1000 | CCN(Cc1cccc(N2CCOCC2)c1)C(=O)n1cc(Cl)cn1 [Example 266, 4-Chloro-N-ethyl-N-(3-morpholinobenzyl)-1H-pyrazole-1-carboxamide]
2 | < 25 | 25 to 75 | < 25 | < 25 | < 25 | 25 to 75 | > 75 | > 75 |  |  |  |  |  |  |  |  |  |  |  |  | CC(=O)N1CCN(C(=O)n2cc(C#N)cn2)CC1 [Example 173, 1-(4-Acetylpiperazine-1-carbonyl)-1H-pyrazole-4-carbonitrile]
3 |  |  |  |  |  |  |  |  | > 75 |  | < 100 | > 75 |  | < 100 | > 75 |  | < 100 | > 75 |  | 100 to 1000 | O=C(N1CCN(Cc2ccccc2C(F)(F)F)CC1)n1cc(C(F)(F)F)cn1 [Example 279, (4-(Trifluoromethyl)-1H-pyrazol-1-yl)(4-(2-(trifluoromethyl)benzyl)piperazin-1-yl)methanone]
4 |  |  |  |  |  |  |  |  | > 75 |  |  | > 75 |  |  | > 75 |  |  | < 25 |  |  | N#Cc1cnn(C(=O)N2CCCN(Cc3cccc(OCc4ccccc4)c3)CC2)c1 [Example 300, 1-(4-(3-(Benzyloxy)benzyl)-1,4-diazepane-1-carbonyl)-1H-pyrazole-4-carbonitrile]

Further lines, the molecule ahead of its results:

Row | Structure (SMILES) | inhibition at 1 µM (ABHD6) [%] | inhibition at 10 µM (ABHD6) [%] | inhibition at 1 µM (FAAH) [%] | inhibition at 10 µM (FAAH) [%] | inhibition at 1 µM (MAGL) [%] | inhibition at 10 µM (MAGL) [%] | inhibition at 1 µM (PLA2G7) [%] | inhibition at 10 µM (PLA2G7) [%] | inhibition at 1 µM (ABHD6; gel-based competitive ABPP) [%] | inhibition at 10 µM (ABHD6; gel-based competitive ABPP) [%] | IC50 (ABHD6) [nM] | inhibition at 1 µM (FAAH; gel-based competitive ABPP) [%] | inhibition at 10 µM (FAAH; gel-based competitive ABPP) [%] | IC50 (FAAH) [nM] | inhibition at 1 µM (MAGL; gel-based competitive ABPP) [%] | inhibition at 10 µM (MAGL; gel-based competitive ABPP) [%] | IC50 (MAGL) [nM] | inhibition at 1 µM (PLA2G7; gel-based competitive ABPP) [%] | inhibition at 10 µM (PLA2G7; gel-based competitive ABPP) [%] | IC50 (PLA2G7) [nM]
5 | O=C(NCc1ccc2ccccc2c1)n1cccn1 [Example 43, N-(Naphthalen-2-ylmethyl)-1H-pyrazole-1-carboxamide] | < 25 | < 25 | < 25 | > 75 | < 25 | 25 to 75 | < 25 | < 25 |  |  |  |  |  |  |  |  |  |  |  | 
6 | O=C(N1CCCN(Cc2ccccc2)CC1)n1cc(C(F)(F)F)cn1 [Example 157, (4-Benzyl-1,4-diazepan-1-yl)(4-(trifluoromethyl)-1H-pyrazol-1-yl)methanone] | > 75 | > 75 | > 75 | > 75 | > 75 | > 75 | < 25 | > 75 |  |  | > 1000 |  |  | 100 to 1000 |  |  | > 1000 |  |  | > 1000
7 | Cc1cnn(C(=O)N2CCN(S(C)(=O)=O)CC2)c1 [Example 162, (4-Methyl-1H-pyrazol-1-yl)(4-(methylsulfonyl)piperazin-1-yl)methanone] | < 25 | 25 to 75 | < 25 | < 25 | < 25 | < 25 | < 25 | > 75 |  |  |  |  |  |  |  |  |  |  |  | 
8 | O=C(c1cnn(C(=O)N2CCN(Cc3ccccn3)CC2)c1)N1CCCC1 [Example 81, (4-(Pyridin-2-ylmethyl)piperazin-1-yl)(4-(pyrrolidine-1-carbonyl)-1H-pyrazol-1-yl)methanone] | < 25 | > 75 |  | > 75 |  | < 25 | < 25 | > 75 |  |  |  |  |  |  |  |  |  |  |  | 
9 | O=C(NCCCCCc1ccccc1)n1cccn1 [Example 37, N-(5-phenylpentyl)-1H-pyrazole-1-carboxamide] |  | < 25 |  | < 25 |  | < 25 |  | < 25 |  |  |  |  |  |  |  |  |  |  |  | 
